In brackets after ≈: the same amount, converted by molar mass. Several values for one entry are separate records, joined by “and”; a condition that tells them apart may be missing. Identical values can stand only once. Activity calls are given as the source filed them. No cut-off for these calls is given here.
Legend:
[1] = Activation of Heliothis virescens recombinant ryanodine receptor expressed in Sf9 cells assessed as induction of calcium mobilization
[2] = test system: Plutella xylostella; test: Insecticidal activity against Plutella xylostella; format: functional
[3] = test system: Spodoptera frugiperda; test: Insecticidal activity against Spodoptera frugiperda; format: functional
[4] = test system: Heliothis virescens; test: Insecticidal activity against Heliothis virescens; format: functional
[5] = target: T1, Ryanodine receptor 2 (Homo sapiens, UniProt Q92736); test: Activation of ryanodine receptor in human IMR32 cells assessed as induction of calcium mobilization; format: cell-based
T1 sequence (Q92736 whole entry): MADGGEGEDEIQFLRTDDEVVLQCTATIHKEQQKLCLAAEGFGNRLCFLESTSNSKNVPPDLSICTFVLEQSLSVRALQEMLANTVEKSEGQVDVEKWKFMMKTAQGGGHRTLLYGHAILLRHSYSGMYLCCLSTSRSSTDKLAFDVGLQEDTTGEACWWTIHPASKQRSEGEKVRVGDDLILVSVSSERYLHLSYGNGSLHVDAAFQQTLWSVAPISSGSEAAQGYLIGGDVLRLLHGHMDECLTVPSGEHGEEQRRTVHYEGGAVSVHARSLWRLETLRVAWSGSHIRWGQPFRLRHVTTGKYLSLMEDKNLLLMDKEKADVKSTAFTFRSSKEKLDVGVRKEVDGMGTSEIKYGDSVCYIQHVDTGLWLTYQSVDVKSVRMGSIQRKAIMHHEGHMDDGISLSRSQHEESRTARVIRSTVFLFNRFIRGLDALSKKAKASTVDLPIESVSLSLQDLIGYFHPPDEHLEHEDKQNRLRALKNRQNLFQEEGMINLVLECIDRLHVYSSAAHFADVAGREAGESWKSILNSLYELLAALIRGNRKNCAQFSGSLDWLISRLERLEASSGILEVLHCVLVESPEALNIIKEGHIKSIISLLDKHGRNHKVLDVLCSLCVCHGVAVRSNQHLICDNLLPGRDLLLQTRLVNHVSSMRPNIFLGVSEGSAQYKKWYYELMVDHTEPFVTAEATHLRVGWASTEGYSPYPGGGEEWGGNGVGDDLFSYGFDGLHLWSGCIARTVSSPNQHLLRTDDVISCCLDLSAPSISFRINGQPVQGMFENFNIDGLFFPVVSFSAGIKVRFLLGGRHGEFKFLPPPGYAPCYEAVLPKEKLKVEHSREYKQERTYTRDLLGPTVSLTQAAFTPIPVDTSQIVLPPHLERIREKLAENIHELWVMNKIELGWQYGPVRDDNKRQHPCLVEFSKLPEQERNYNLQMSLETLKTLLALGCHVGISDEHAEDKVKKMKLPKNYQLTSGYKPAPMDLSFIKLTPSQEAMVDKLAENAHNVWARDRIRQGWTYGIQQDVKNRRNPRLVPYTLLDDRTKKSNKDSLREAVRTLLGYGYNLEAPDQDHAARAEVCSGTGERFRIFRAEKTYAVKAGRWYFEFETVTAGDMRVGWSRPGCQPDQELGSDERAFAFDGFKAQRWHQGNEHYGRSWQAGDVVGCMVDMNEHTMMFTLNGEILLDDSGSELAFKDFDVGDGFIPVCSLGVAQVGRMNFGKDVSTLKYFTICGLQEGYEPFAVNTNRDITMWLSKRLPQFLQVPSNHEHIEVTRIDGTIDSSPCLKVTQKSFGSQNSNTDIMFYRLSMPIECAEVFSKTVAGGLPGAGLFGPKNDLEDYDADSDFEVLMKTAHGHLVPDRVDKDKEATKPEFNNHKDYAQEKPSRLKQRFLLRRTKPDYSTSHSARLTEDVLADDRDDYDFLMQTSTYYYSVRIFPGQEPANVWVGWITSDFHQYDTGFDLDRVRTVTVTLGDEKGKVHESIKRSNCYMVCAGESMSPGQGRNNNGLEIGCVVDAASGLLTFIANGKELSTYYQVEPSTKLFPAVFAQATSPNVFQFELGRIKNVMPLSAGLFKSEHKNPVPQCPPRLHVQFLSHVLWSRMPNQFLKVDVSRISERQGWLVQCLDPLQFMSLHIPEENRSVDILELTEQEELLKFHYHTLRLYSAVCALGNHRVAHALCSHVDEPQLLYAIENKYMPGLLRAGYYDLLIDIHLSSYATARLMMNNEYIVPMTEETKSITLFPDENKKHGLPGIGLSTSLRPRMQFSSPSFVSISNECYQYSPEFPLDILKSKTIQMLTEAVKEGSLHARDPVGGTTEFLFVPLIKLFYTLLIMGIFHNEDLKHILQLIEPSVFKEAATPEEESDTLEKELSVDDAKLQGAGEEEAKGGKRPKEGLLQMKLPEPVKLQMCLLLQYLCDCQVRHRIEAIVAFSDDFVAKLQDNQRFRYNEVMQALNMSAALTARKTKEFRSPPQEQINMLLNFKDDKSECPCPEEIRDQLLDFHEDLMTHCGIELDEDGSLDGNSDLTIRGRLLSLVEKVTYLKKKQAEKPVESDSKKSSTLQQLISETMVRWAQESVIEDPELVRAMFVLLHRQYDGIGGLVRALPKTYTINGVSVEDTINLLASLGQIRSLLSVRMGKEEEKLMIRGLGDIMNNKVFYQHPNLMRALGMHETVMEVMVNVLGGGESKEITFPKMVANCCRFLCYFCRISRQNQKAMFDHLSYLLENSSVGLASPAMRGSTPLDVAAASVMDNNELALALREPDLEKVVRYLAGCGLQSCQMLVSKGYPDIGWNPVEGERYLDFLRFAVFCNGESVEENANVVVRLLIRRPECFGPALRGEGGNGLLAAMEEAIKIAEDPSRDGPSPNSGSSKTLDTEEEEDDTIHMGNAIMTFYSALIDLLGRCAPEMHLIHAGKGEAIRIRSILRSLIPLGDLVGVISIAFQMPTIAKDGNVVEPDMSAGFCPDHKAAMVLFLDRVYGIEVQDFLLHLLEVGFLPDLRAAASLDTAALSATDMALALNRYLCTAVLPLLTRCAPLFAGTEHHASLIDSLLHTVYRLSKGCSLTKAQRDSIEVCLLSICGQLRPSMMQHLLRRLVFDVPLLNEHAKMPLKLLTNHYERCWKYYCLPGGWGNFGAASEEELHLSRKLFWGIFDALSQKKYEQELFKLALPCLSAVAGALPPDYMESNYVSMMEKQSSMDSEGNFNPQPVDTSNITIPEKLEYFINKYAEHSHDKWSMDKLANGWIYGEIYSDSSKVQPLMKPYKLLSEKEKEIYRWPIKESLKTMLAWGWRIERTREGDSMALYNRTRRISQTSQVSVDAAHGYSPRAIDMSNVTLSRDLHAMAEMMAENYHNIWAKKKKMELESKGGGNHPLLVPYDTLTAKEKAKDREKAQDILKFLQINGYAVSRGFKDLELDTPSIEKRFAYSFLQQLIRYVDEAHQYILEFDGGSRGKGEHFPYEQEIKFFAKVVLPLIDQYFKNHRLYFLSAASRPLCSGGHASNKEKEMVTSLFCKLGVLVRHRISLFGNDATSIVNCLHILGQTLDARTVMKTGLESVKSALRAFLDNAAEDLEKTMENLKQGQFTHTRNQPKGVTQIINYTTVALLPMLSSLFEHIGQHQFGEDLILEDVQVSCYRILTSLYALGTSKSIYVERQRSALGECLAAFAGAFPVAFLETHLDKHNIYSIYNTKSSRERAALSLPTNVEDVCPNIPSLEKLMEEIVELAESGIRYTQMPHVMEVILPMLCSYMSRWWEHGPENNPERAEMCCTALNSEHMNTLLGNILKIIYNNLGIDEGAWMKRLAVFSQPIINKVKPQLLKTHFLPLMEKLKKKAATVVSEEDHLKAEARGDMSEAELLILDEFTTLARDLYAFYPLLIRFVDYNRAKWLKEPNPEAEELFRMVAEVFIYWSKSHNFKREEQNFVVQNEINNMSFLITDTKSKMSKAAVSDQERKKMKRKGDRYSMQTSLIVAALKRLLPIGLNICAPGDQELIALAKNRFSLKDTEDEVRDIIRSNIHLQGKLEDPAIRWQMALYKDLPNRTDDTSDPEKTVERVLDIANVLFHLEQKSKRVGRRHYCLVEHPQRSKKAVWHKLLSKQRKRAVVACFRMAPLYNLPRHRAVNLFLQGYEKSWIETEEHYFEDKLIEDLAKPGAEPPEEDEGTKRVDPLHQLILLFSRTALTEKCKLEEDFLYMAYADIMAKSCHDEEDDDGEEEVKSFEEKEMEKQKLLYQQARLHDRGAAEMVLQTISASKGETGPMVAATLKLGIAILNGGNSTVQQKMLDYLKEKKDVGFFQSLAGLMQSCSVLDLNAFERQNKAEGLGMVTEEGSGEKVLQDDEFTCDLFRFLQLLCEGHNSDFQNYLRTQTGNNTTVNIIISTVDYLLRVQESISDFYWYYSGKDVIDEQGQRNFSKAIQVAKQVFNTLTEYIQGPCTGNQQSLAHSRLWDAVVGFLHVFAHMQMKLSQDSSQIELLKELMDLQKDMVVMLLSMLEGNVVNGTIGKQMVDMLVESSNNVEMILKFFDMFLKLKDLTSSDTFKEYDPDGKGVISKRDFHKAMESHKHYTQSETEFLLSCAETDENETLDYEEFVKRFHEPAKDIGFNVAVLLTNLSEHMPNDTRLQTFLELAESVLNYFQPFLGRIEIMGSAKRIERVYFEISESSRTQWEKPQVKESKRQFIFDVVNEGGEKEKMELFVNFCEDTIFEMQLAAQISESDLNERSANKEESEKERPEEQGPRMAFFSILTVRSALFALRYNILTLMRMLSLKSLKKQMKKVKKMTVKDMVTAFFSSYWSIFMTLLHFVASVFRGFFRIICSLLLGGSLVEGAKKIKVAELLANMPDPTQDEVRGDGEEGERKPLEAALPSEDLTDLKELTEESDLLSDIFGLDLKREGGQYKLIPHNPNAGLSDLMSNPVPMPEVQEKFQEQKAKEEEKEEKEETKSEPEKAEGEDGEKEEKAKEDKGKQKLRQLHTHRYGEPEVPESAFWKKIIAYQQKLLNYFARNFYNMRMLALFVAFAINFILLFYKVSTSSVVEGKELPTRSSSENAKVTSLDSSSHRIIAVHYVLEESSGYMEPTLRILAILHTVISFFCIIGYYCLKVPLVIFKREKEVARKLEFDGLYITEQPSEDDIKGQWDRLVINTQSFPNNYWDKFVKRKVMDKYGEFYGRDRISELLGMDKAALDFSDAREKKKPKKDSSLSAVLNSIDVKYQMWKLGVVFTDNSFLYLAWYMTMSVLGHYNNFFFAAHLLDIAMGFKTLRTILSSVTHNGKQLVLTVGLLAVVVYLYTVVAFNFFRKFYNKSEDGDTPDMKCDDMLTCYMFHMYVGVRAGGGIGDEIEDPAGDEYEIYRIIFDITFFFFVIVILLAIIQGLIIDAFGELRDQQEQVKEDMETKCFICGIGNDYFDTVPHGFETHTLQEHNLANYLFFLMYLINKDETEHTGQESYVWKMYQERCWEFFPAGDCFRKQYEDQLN

[6] = Toxicity in po dosed rat; format: organism-based; conditions: in vivo
[7] = Activation of ryanodine receptor in mouse C2C12 cells assessed as induction of calcium mobilization; format: cell-based
[8] = Activation of ryanodine receptor in rat PC12 cells assessed as induction of calcium mobilization; format: cell-based; conditions: PC-12
[9] = target: T1, Ryanodine receptor 2; test: Activation of ryanodine receptor in human IMR32 cells assessed as induction of calcium mobilization at 100 uM; format: cell-based; conditions: IMR-32
[10] = test system: Rattus norvegicus; test: Toxicity in rat above 1000 mg/kg/day; format: organism-based; conditions: in vivo
[11] = test system: PC-12; test: Activation of ryanodine receptor in rat PC12 cells assessed as induction of calcium mobilization at 100 uM; format: cell-based
[12] = target: Ryanodine receptor (Drosophila melanogaster, UniProt Q24498); test: Activation of Drosophila melanogaster ryanodine receptor in Sf9 cells assessed as induction of calcium mobilization; format: cell-based
[13] = test system: Oryctolagus cuniculus; test: Toxicity in rabbit above 1000 mg/kg/day; format: organism-based; conditions: in vivo

CNC(=O)c1cc(Cl)cc(C)c1NC(=O)c1cc(OC)nn1-c1ncccc1Cl
EC50 [1]: 0.101 µM
LC50 [2]: 0.33 µg/mL (≈ 0.76 µM)
LC50 [3]: 0.68 µg/mL (≈ 1.57 µM)
LC50 [4]: 2.43 µg/mL (≈ 5.6 µM)

Cc1cc(Br)cc(C(=O)NC(C)C)c1NC(=O)c1cc(C(F)(F)F)nn1-c1ncccc1Cl
EC50 [1]: 1.57 µM
LC50 [2]: 0.01 µg/mL (≈ 0.0184 µM)
LC50 [3]: 0.03 µg/mL (≈ 0.0551 µM)
LC50 [4]: 0.03 µg/mL (≈ 0.0551 µM)

CNC(=O)c1cc(Cl)cc(C)c1NC(=O)c1cc(Cl)nn1-c1ncccc1Cl
EC50 [1]: 0.069 µM
LC50 [2]: 0.03 µg/mL (≈ 0.0684 µM)
LC50 [3]: 0.03 µg/mL (≈ 0.0684 µM)
LC50 [4]: 0.07 µg/mL (≈ 0.16 µM)

COc1cc(C(=O)Nc2c(C)cc(Cl)cc2C(=O)NC(C)C)n(-c2ncccc2Cl)n1
EC50 [1]: 0.387 µM
LC50 [2]: 0.18 µg/mL (≈ 0.389 µM)
LC50 [3]: 0.3 µg/mL (≈ 0.649 µM)
LC50 [4]: 1.14 µg/mL (≈ 2.47 µM)

Cc1cc(Cl)cc(C(=O)NC(C)C)c1NC(=O)c1cc(OC(F)F)nn1-c1ncccc1Cl
EC50 [1]: 0.511 µM
LC50 [2]: 0.1 µg/mL (≈ 0.201 µM)
LC50 [3]: 0.14 µg/mL (≈ 0.281 µM)
LC50 [4]: 0.12 µg/mL (≈ 0.241 µM)

CNC(=O)c1cc(C(F)(F)F)cc(C)c1NC(=O)c1cc(C(F)(F)F)nn1-c1ncccc1Cl
LC50 [2]: 0.09 µg/mL (≈ 0.178 µM)
LC50 [3]: 0.53 µg/mL (≈ 1.05 µM)
LC50 [4]: 0.66 µg/mL (≈ 1.3 µM)

CNC(=O)c1cc(I)cc(C)c1NC(=O)c1cc(Br)nn1-c1ncccc1Cl
EC50 [1]: 0.118 µM
LC50 [2]: 0.07 µg/mL (≈ 0.122 µM)
LC50 [3]: 0.13 µg/mL (≈ 0.226 µM)
LC50 [4]: 0.16 µg/mL (≈ 0.278 µM)

Cc1cc(Cl)cc(C(=O)NC(C)C)c1NC(=O)c1cc(Cl)nn1-c1ncccc1Cl
EC50 [1]: 0.27 µM
LC50 [2]: 0.09 µg/mL (≈ 0.193 µM)
LC50 [3]: 0.05 µg/mL (≈ 0.107 µM)
LC50 [4]: 0.05 µg/mL (≈ 0.107 µM)

Cc1cc(Cl)cc(C(=O)NC(C)C)c1NC(=O)c1cc(Br)nn1-c1ncccc1Cl
EC50 [1]: 0.458 µM
LC50 [2]: 0.04 µg/mL (≈ 0.0782 µM)
LC50 [3]: 0.04 µg/mL (≈ 0.0782 µM)
LC50 [4]: 0.02 µg/mL (≈ 0.0391 µM)

Cn1c(=O)c2c(ncn2C)n(C)c1=O
Activity ([5]; IMR-32): Dose-dependent effect

CNC(=O)c1cc(Cl)cc(C)c1NC(=O)c1cc(OC(F)F)nn1-c1ncccc1Cl
EC50 [1]: 0.06 µM
LC50 [2]: 0.38 µg/mL (≈ 0.808 µM)
LC50 [3]: 0.21 µg/mL (≈ 0.447 µM)
LC50 [4]: 1.08 µg/mL (≈ 2.3 µM)

CNC(=O)c1cc(Cl)cc(C)c1NC(=O)c1cc(C(F)(F)F)nn1-c1ncccc1Cl
EC50 [1]: 0.073 µM
LC50 [2]: 0.01 µg/mL (≈ 0.0212 µM)
LC50 [3]: 0.02 µg/mL (≈ 0.0424 µM)
LC50 [4]: 0.05 µg/mL (≈ 0.106 µM)

CNC(=O)c1cc(I)cc(C)c1NC(=O)c1cc(C(F)(F)F)nn1-c1ncccc1Cl
EC50 [1]: 0.205 µM
LC50 [2]: 0.1 µg/mL (≈ 0.177 µM)
LC50 [3]: 0.26 µg/mL (≈ 0.461 µM)
LC50 [4]: 0.21 µg/mL (≈ 0.373 µM)

Cc1cc(Cl)cc(C(=O)NC(C)C)c1NC(=O)c1cc(C(F)(F)F)nn1-c1ncccc1Cl
EC50 [1]: 1.83 µM
LC50 [2]: 0.01 µg/mL (≈ 0.02 µM)
LC50 [3]: 0.03 µg/mL (≈ 0.06 µM)
LC50 [4]: 0.02 µg/mL (≈ 0.04 µM)

CNC(=O)c1cc(Cl)cc(C)c1NC(=O)c1cc(Br)nn1-c1ncccc1Cl [CHLORANTRANILIPROLE]
LD50 [6]: > 5000 mg/kg
EC50 [7]: 14 µM
EC50 [1]: 0.052 µM and 0.05 µM
EC50 [8]: > 100 µM
LC50 [2]: 0.02 µg/mL (≈ 0.0414 µM)
Activity [9]: inactive
Activity [10]: Non-toxic
LC50 [3]: 0.02 µg/mL (≈ 0.0414 µM)
Activity [11]: 20%
EC50 [12]: 0.04 µM
LC50 [4]: 0.04 µg/mL (≈ 0.0828 µM)
EC50 [5]: > 100 µM
Activity [13]: Non-toxic

CNC(=O)c1cc(Br)cc(C)c1NC(=O)c1cc(Br)nn1-c1ncccc1Cl
EC50 [1]: 0.063 µM
LC50 [2]: 0.06 µg/mL (≈ 0.114 µM)
LC50 [3]: 0.18 µg/mL (≈ 0.341 µM)
LC50 [4]: 0.11 µg/mL (≈ 0.208 µM)

Cc1cc(C(F)(F)F)cc(C(=O)NC(C)C)c1NC(=O)c1cc(C(F)(F)F)nn1-c1ncccc1Cl
EC50 [1]: 3.7 µM
LC50 [2]: 0.07 µg/mL (≈ 0.131 µM)
LC50 [3]: 0.39 µg/mL (≈ 0.731 µM)
LC50 [4]: 0.11 µg/mL (≈ 0.206 µM)

CNC(=O)c1cc(Cl)cc(C)c1NC(=O)c1cc(OCC(F)(F)F)nn1-c1ncccc1Cl
EC50 [1]: 0.24 µM
LC50 [2]: 0.04 µg/mL (≈ 0.0796 µM)
LC50 [3]: 0.11 µg/mL (≈ 0.219 µM)
LC50 [4]: 0.24 µg/mL (≈ 0.478 µM)

Cc1cc(Cl)cc(C(=O)NC(C)C)c1NC(=O)c1cc(OCC(F)(F)F)nn1-c1ncccc1Cl
EC50 [1]: 2.73 µM
LC50 [2]: 0.01 µg/mL (≈ 0.0189 µM)
LC50 [3]: 0.03 µg/mL (≈ 0.0566 µM)
LC50 [4]: 0.09 µg/mL (≈ 0.17 µM)

Reference: ChEMBL document CHEMBL1140509, “Rynaxypyr: a new insecticidal anthranilic diamide that acts as a potent and selective ryanodine receptor activator” (Bioorg Med Chem Lett, 2007)
